The record followed here is patent publication US8871753B2, “Macrocyclic compounds and their use as kinase inhibitors” (Incyte Corporation, priority 2008, dated 2014).

Structures are written as SMILES. Where a name gives a salt, the structure may show the parent alone. Read-outs that look alike come from different tables or passages of the source.

What all share (format): biochemical
The target in experiment [1] is T1, human JAK1 (a.a. 837-1142) (Homo sapiens, UniProt P23458).
T1 construct: human JAK1 (a.a. 837-1142); His tag (N); made in house; host or cells: insect cells (baculovirus)
T1 sequence (P23458 849-1154): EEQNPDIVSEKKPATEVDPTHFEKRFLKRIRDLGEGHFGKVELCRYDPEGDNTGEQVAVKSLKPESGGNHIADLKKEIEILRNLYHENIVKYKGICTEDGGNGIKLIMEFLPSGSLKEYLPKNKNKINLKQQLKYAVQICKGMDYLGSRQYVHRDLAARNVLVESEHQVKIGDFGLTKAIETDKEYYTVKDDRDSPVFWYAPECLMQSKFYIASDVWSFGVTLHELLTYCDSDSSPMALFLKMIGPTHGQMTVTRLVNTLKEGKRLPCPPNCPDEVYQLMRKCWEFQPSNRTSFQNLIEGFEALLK
As to the kind of experiment: In vitro JAK kinase assay (HTRF, phosphorylation of a biotinylated peptide), JAK1. The conditions noted are these: read-out: JAK1 IC50. The procedure, abridged:
(§1)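 Kinase reactions ran at room temperature for 1 h with ATP matched per isoform (JAK1 90 μM, JAK2 30 μM, JAK3 3 μM). After an EDTA stop, the phosphorylated biotin-peptide was read by HTRF using Eu-Py20 and SA-APC after 40 min binding.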

Experiment [2] addresses T2, human JAK2 (a.a. 828-1132) (Homo sapiens, UniProt O60674).
T2 construct: JAK2 (a.a. 828-1132); His tag (N); made in house; host or cells: insect cells (baculovirus)
Briefly: In vitro JAK kinase assay (HTRF, phosphorylation of a biotinylated peptide), JAK2. In outline: as §1

Experiment [3] addresses T3, human JAK3 (a.a. 781-1124) (Homo sapiens, UniProt P52333).
T3 construct: JAK3 (a.a. 781-1124); His tag (N); made in house; host or cells: insect cells (baculovirus)
Briefly: In vitro JAK kinase assay (HTRF, phosphorylation of a biotinylated peptide), JAK3. In outline:
as §1

A further experiment addresses TYK2 (Homo sapiens, UniProt P29597). Briefly: TYK2 kinase inhibition (Table A1).
Experiment [4] deals with T4, Recombinant Human Anaplastic Lymphoma Kinase (Homo sapiens, UniProt Q9UM73).
T4 construct: purchased Invitrogen, Carlsbad, Calif
T4 sequence (Q9UM73 19-1620): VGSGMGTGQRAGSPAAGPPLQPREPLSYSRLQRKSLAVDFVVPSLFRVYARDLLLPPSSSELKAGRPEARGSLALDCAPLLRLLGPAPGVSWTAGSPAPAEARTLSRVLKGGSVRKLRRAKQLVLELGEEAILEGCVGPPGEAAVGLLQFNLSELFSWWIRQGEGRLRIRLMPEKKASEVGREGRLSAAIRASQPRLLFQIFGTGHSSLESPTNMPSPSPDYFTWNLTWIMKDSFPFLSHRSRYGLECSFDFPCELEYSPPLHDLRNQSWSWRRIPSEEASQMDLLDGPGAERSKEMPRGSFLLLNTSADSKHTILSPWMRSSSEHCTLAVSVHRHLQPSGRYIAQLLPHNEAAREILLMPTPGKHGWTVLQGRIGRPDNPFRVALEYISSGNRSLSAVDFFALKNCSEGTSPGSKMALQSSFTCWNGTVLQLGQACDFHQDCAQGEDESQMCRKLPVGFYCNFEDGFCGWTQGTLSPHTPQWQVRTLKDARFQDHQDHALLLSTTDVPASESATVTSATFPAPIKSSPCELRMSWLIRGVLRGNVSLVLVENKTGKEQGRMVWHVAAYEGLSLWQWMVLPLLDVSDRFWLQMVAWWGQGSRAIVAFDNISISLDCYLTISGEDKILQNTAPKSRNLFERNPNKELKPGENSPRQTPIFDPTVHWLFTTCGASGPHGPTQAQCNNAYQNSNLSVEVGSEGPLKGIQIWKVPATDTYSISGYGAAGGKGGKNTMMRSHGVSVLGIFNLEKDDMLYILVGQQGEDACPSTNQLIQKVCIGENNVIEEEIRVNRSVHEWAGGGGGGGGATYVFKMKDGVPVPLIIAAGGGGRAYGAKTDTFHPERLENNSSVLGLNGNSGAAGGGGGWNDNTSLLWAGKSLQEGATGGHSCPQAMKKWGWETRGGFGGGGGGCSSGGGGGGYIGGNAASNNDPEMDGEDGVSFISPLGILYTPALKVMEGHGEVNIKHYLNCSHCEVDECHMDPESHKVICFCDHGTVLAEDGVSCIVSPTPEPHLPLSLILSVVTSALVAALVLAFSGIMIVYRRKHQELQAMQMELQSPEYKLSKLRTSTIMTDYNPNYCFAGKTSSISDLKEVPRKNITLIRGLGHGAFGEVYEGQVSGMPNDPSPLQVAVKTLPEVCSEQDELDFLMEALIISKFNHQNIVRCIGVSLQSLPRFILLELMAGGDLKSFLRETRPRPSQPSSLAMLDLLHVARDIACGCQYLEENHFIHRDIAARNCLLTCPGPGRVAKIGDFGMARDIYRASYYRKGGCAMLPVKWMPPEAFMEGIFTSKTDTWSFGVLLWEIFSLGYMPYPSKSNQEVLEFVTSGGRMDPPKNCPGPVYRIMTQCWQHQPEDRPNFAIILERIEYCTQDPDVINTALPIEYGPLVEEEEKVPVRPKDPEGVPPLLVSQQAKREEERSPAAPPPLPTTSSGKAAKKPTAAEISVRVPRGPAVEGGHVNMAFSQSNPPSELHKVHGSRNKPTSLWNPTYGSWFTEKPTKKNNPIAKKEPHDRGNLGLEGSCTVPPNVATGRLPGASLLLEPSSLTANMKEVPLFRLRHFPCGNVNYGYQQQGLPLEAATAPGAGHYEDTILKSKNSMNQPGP
Briefly: ALK HTRF kinase assay. In outline:
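Kinase activity of the recombinant human protein is measured on a biotinylated peptide, with a Eu-W1024 anti-phosphotyrosine antibody and streptavidin-allophycocyanin generating the homogeneous time-resolved fluorescence signal. Inhibition curves are fitted to yield IC50.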

Setting [5] is: compound at a concentration of 500 nM or 1 mM (not specified), cells shown as percentage.
[6] abbreviates: method AA1 (90 μM ATP) or AA2 (1000 μM ATP), not stated per value.
[7] abbreviates: method AA1 (30 μM ATP) or AA2 (1000 μM ATP), not stated per value.
[8] abbreviates: method AA1 (3 μM ATP) or AA2 (1000 μM ATP), not stated per value.
[9] abbreviates: compound at 500 nM or 1 mM, 90 μM ATP.

TYK2, sequence (P29597 whole entry): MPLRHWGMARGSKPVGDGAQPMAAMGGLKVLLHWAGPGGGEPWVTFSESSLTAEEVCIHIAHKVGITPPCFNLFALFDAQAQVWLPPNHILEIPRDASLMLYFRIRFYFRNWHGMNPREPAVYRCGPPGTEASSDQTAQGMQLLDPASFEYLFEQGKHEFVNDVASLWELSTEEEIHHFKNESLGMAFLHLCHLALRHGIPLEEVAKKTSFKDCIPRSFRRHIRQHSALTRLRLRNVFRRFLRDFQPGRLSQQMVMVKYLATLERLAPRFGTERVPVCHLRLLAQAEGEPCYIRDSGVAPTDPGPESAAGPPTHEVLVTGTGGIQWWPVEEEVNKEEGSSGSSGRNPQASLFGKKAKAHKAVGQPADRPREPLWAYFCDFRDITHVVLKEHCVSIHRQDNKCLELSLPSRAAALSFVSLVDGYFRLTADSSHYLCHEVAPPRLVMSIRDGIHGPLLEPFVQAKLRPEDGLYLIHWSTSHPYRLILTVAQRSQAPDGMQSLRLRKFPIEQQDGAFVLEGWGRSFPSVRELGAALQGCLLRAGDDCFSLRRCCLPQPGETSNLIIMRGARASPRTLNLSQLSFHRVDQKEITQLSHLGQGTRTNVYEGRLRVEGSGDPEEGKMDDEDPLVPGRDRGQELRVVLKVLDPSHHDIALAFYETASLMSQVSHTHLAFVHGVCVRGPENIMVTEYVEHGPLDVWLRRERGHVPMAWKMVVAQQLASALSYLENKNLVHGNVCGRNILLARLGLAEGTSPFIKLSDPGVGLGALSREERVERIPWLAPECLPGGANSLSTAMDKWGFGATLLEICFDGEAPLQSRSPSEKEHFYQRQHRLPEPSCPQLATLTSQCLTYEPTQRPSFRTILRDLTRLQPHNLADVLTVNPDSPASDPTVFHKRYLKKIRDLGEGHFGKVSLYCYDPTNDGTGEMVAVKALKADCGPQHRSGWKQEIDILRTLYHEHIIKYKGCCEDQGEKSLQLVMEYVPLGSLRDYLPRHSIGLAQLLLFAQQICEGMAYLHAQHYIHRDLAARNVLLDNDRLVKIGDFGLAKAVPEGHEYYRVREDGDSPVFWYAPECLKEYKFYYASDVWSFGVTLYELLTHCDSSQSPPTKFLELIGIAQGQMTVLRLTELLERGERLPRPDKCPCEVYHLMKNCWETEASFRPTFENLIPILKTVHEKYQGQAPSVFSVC
T3 sequence (P52333 781-1124): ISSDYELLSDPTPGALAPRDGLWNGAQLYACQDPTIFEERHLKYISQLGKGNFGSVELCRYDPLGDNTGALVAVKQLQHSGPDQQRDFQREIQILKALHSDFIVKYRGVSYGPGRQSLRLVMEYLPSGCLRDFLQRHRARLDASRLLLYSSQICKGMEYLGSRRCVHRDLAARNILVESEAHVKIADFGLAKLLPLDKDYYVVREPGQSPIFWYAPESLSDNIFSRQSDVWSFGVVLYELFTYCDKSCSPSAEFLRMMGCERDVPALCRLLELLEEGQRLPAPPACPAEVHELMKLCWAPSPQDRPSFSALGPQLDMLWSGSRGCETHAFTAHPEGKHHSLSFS
T2 sequence (O60674 828-1132): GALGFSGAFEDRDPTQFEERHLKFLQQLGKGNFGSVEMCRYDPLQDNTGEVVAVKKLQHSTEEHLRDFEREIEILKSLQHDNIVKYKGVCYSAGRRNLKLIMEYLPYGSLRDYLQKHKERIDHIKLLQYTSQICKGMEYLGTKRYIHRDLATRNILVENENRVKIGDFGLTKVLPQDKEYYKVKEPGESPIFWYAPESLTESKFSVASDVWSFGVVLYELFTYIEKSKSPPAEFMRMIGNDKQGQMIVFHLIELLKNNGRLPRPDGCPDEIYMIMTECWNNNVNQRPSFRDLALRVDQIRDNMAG

Consider `Cc1cc(C(=O)N2CC[C@H](NC(=O)Nc3ccc4cc3CCc3cncc(c3)Nc3ncc(Cl)c(n3)N4)C2)no1` [Example B265, N-[6-Chloro-2,4,8,18,22-pentaazatetracyclo[14.3.1.1(3,7).1(9,13)]docosa-1(20),3(22),4,6,9(21),10,12,16,18-nonaen-12-yl]-N′-{(3S)-1-[(5-methylisoxazol-3-yl)carbonyl]pyrrolidin-3-yl}urea bis(trifluoroacetate)], for which the IC50 in experiment [1] (Table B1) came to 14 nM; in experiment [2] (Table B1), 141 nM; in experiment [3] (Table B1), 85 nM; on TYK2 (Table B1), 15 nM. In experiment [4] (setting [5]), the “ALK % of inhibition at a concentration of 500 nM or 1 mM” value (shortened to “ALK % of inhibition”) stood at 23%.
Take `Cc1ccccc1C(=O)Nc1ccc2cc1CCc1cccc(c1)Nc1ncc(Cl)c(n1)N2` [Example B35, N-[6-Chloro-2,4,8,22-tetraazatetracyclo[14.3.1.1(3,7).1(9,13)]docosa-1(20), 3(22),4,6,9(21),10,12,16,18-nonaen-12-yl]-2-methylbenzamide trifluoroacetate]: the IC50 was 0.6 nM in experiment [1] (Table B1); 0.35 nM in experiment [2] (Table B1); 1.4 nM in experiment [3] (Table B1); 1.3 nM at TYK2 (Table B1); 76 nM in experiment [4] (Table B1, cells without percent sign).
Take `N#CCC(=O)Nc1ccc2cc1CCc1cccc(c1)Nc1ncc(Cl)c(n1)N2` [Example A65, N-[6-Chloro-2,4,8,22-tetraazatetracyclo[14.3.1.1(3,7).1(9,13)]docosa-1(20), 3(22),4,6,9(21),10,12,16,18-nonaen-12-yl]-2-cyanoacetamide trifluoroacetate]: the IC50 in experiment [1] (setting [6]) came to 9 nM; in experiment [2] (setting [7]), 11 nM; in experiment [3] (setting [8]), 7.3 nM; against TYK2 it was 17 nM. The “ALK % of inhibition” value in experiment [4] (setting [9]) was determined as 39%.
Taken in the same sequence, the figures for `C[N+]1(C)CCC(CC(=O)Nc2ccc3cc2CCc2cccc(c2)Nc2ncc(Cl)c(n2)N3)CC1` [Example A111, 4-(2-{[6-Chloro-2,4,8,22-tetraazatetracyclo[14.3.1.1(3,7).1(9,13)]docosa-1(20),3(22),4,6,9(21),10,12,16,18-nonaen-12-yl]amino}-2-oxoethyl)-1,1-dimethylpiperidinium bis(trifluoroacetate)] were 45 nM, 103 nM, 298 nM, 148 nM and 23%.
As to `Clc1cnc2nc1Nc1cccc(c1)SCc1cccc(c1)N2` [Example D1, 6-Chloro-14-thia-2,4,8,22-tetraazatetracyclo[14.3.1.1(3,7).1(9,13)]docosa-1(20),3(22),4,6,9(21),10,12,16,18-nonaene trifluoroacetate], the IC50 in experiment [1] (Table D1) is 13 nM; in experiment [2] (Table D1), 9.6 nM; in experiment [3] (Table D1) it was 16 nM; at TYK2 (Table D1), 14 nM; in experiment [4] (Table D1, 90 μM ATP) it was 620 nM.
As to `N#Cc1ccc(C(=O)N2CC[C@H](NC(=O)Nc3ccc4cc3CCc3cccc(c3)Nc3ncc(Cl)c(n3)N4)C2)cc1` [Example B235, N-[6-Chloro-2,4,8,22-tetraazatetracyclo[14.3.1.1(3,7).1(9,13)]docosa-1(20),3(22),4,6,9(21),10,12,16,18-nonaen-12-yl]-N′-[(3S)-1-(4-cyanobenzoyl)pyrrolidin-3-yl]urea trifluoroacetate], the IC50 in experiment [1] (Table B1) was 6 nM; in experiment [2] (Table B1) it was 21 nM; in experiment [3] (Table B1) it was 213 nM; against TYK2 (Table B1) it was 36 nM. Further, the “ALK % of inhibition” value in experiment [4] (setting [5]) came to 7.3%.
The corresponding values for `O=C(NCCO)Nc1ccc2cc1CCc1cccc(c1)Nc1ncc(Cl)c(n1)N2` [Example B241, N-[6-Chloro-2,4,8,22-tetraazatetracyclo[14.3.1.1(3,7).1(9,13)]docosa-1(20),3(22),4,6,9(21),10,12,16,18-nonaen-12-yl]-N′-(2-hydroxyethyl)urea trifluoroacetate] are 1.1 nM, 1.5 nM, 10 nM, 3.5 nM and 22%.
